# Experiments:
# [1] = Site of absorption study (Phase 1, remote control capsule, segmental absorption and pharmacokinetics); type: in vivo, human; conditions: 30 mg powder with sodium bicarbonate released via remote control capsule; healthy adult males
# Description: This was a Phase 1, open-label, non-randomized, four-period, single-dose, crossover study in 8 healthy adult males. […] Upon receiving a remote signal during Periods 1, 2, and 3, the capsule released it's contents in the pre-designated site within the GI tract (see table 1 below).
# Indium-111 chloride (^111 In-chloride) was used as the radioactive marker in the test formulation that was filled into remote control capsule. Each subject also received a second radioisotope, technetium-99m DTPA (^99mTc-DTPA), in the water used to swallow the InteliSite Companion capsule. Since the radioisotopes are not absorbed, progress of the formulation through the GI tract was monitored using a gamma camera that captures images at frequent intervals after ingestion of the dose. The radioisotope in the water outlined or “mapped” the GI tract to delineate the targeted site of drug release. […]
# The relative bioavailability of lansoprazole delivered to the proximal small intestine, distal small intestine, or colon compared to the delayed release lansoprazole capsule was calculated as the ratios of AUC∞ for different GI regions to that of the delayed release capsule. In addition, the relative bioavailability of lansoprazole delivered to the distal small intestine and colon compared to the proximal small intestine was calculated.
# [2] = system: gastric pH; test: Threshold level modeling: effect compartment / sigmoid Emax PK-PD model of intragastric pH versus lansoprazole concentration after single intravenous doses; type: in vivo, humans; conditions: effect compartment concentration (assumed same as plasma concentration at steady-state), fasting, FIG. 1
# Description: Plasma concentration data obtained following administration of single intravenous doses of lansoprazole in humans was modeled to establish threshold concentrations above which a PPI is effective. Initially, gastric pH measured over the five hours post dosing (under fasting conditions) was plotted as a function of plasma concentration. However, no direct relationship between the gastric pH and the drug's plasma concentration could be established. […] An effect compartment model was then used in an attempt to delineate a useful relationship between drug concentration and effect. Accordingly, a model was proposed where a PK compartment was linked to a separate effect compartment. […] Using the same intravenous data, the pharmacological effect was modeled using sigmoid Emax model and PK was modeled using the two compartment model. The modeling first established the pharmacokinetic characteristics of lansoprazole, then the relationship between drug plasma concentration and intragastric pH was established, and pharacodynamic parameter estimates were obtained. The modeling provided the graph shown in FIG. 1 where the effect compartment concentration (assumed to be the same as the plasma concentration at steady-state) is on the x-axis and gastric pH on the y-axis. […]
smiles,measurement,setting,value
Cc1c(OCC(F)(F)F)ccnc1C[S+]([O-])c1nc2ccccc2[nH]1 (stereo not shown) [lansoprazole],extent of absorption when directly delivered to the colon,[1],reduced
same,rate and extent of absorption from the distal small intestine versus proximal intestine,[1],"less than those obtained for the proximal intestine, although the absorptions were comparable"
same,concentration above which the effect on gastric pH levels off,[2],~450 ng/ml
same,threshold concentration above which the effect of the drug (rise of gastric pH above baseline) begins,[2],approximately 100 ng/ml
